Results: ChEMBL document CHEMBL1145001, “Angiotensin II AT1 receptor antagonists. Clinical implications of active metabolites” (J Med Chem, 2003)

Key:
[1] = Renal clearance value was evaluated; type: ADME, organism-based, Kidney; conditions: in vivo
[2] = Acid dissociation value was evaluated; type: ADME
[3] = Half life of compound was determined; type: ADME
[4] = Total clearance value was evaluated; type: ADME, organism-based; conditions: in vivo
[5] = target: T1, Type-1 angiotensin II receptor (Homo sapiens) (UniProt P30556); assay: Inhibition against Angiotensin II receptor, type 1
T1 sequence (whole entry): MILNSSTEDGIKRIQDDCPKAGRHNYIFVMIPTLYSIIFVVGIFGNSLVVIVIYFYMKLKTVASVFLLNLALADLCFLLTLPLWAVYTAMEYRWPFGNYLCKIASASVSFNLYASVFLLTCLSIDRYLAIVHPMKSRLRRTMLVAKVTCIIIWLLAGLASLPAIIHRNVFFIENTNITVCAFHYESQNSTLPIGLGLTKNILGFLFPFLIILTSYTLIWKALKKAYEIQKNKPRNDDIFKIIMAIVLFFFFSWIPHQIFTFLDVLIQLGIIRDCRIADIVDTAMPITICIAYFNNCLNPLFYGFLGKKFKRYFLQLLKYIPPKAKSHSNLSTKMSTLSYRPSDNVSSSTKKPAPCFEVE

[6] = target: T1, Type-1 angiotensin II receptor (Homo sapiens); assay: Relative binding affinity of compound to Angiotensin II receptor, type 1 was determined
[7] = Absolute bioavailability of compound was determined; type: ADME, organism-based; conditions: in vivo; read-out: Bioavailabiility
[8] = Effective concentration of compound to stimulate 300% increase of growth hormone secretion; type: functional
[9] = target: T2, Type-1 angiotensin II receptor (Homo sapiens, UniProt P30556); assay: Compound was tested for inhibition against Angiotensin II receptor, type 1
T2 sequence (P30556 whole entry): T1 sequence (whole entry)

Phosphodiesterase 3 = Phosphodiesterase 3 (Homo sapiens, UniProt Q14432+Q13370); assay: Inhibition of phosphodiesterase 3(PDE 3); type: protein assay
Phosphodiesterase 4 = Phosphodiesterase 4 (Homo sapiens, UniProt P27815+Q08499+Q07343+Q08493); assay: Inhibition of phosphodiesterase 4 (PDE 4); type: protein assay
[10] = target: T2, Type-1 angiotensin II receptor; assay: Inhibition constant against Angiotensin II receptor, type 1 was determined
[11] = Inhibition of bovine cAMP phosphodiesterase; set-up: species or system Bos taurus
[12] = Acid dissociation constant was evaluated; type: ADME
[13] = Inhibition of calcium calmodulin-dependent cGMP-Phosphodiesterase 1
[14] = Inhibition of Phosphodiesterase 4

| SMILES | CL_renal [1] [mL/s] | pKa [2] | half-life [3] [h] | CLtotal [4] [mL/s] | AT1 affinity [5] [nM l-1] | Relative binding affinity [6] | also measured |
| --- | --- | --- | --- | --- | --- | --- | --- |
| CCOc1nc2cccc(C(=O)O)c2n1Cc1ccc(-c2ccccc2-c2nnn[nH]2)cc1 | > 7 | 3.9 | > 9 | 1 | 0.1 | 1 |  |
| CCCc1nc2c(C)cc(-c3nc4ccccc4n3C)cc2n1Cc1ccc(-c2ccccc2C(=O)O)cc1 | < 5 | 4.5 | > 20 | 19 | 1 | 10 | bioavailability [7]: 43% |
| CCCCC(=O)N(Cc1ccc(-c2ccccc2-c2nnn[nH]2)cc1)[C@H](C(=O)O)C(C)C | 4.8 | 3.1 | 6.1 | 37 | 1.4 |  |  |
| CNC(=O)NCc1ccccc1-c1ccc(CN2C(=O)[C@H](NC(=O)CC(C)(C)N)CCc3ccccc32)cc1 |  |  |  |  |  |  | EC50 [8]: 3 nM |
| CCCCc1nc(Cl)c(C=O)n1Cc1ccc(-c2ccccc2-c2nn[nH]n2)cc1 |  | 4 |  |  | 20 |  |  |
| CC(C)(N)CC(=O)N[C@@H]1CCc2ccccc2N(Cc2ccc(-c3ccccc3-c3nn[nH]n3)cc2)C1=O |  |  |  |  |  |  | EC50 [8]: 3 nM |
| Cc1nc(C(=O)O)nc2c1CCC(=O)N2Cc1ccc(-c2ccccc2-c2nnn[nH]2)cc1 |  |  |  |  |  |  | IC50 [9]: 11 nM |
| CCCCc1nc(SCc2ccc(-c3ccccc3-c3nn[nH]n3)cc2)c2ccccc2n1 |  |  |  |  |  |  | IC50 (Phosphodiesterase 3): 8000 nM; IC50 (Phosphodiesterase 4): 2900 nM |
| O=C(O)c1nc(CO)nc2c1CCC(=O)N2Cc1ccc(-c2ccccc2-c2nn[nH]n2)cc1 |  |  |  |  |  |  | IC50 [9]: 44 nM |
| CC(O)CCC(=O)N(c1ccc(-c2ccccc2-c2nnn[nH]2)cc1)[C@H](C(=O)O)C(C)C (stereo partly drawn) |  |  |  |  |  |  | Ki [10]: 370 nM; IC50 [9]: 470 nM |
| CCOc1nc2cccc(C(=O)OC(C)OC(=O)OC3CCCCC3)c2n1Cc1ccc(-c2ccccc2-c2nn[nH]n2)cc1 (stereo not drawn) |  |  |  |  |  |  | AT1 affinity [6]: 280 |
| CCCCc1nc(Cl)c(C(=O)O)n1Cc1ccc(-c2ccccc2-c2nn[nH]n2)cc1 [CARBOXYLIC ACID METABOLITE] | 0.4 | 2.8 | 4.4 | 0.78 | 1.3 | 10 | IC50 [11]: 38900 nM |
| Cc1nc(C)c2c(O)cc(=O)n(Cc3ccc(-c4ccccc4-c4nnn[nH]4)cc3)c2n1 [ENOLTASOSARTAN] |  |  |  |  |  |  | pKa [12]: 9.4; IC50 [9]: 0.17 nM |
| CCCCc1ncc(/C=C(\Cc2cccs2)C(=O)O)n1Cc1ccc(C(=O)O)cc1 [EPROSARTAN] | 0.6 | 4 | 5 | 2.5 | 1.5 | 100 |  |
| CCCCC1=NC2(CCCC2)C(=O)N1Cc1ccc(-c2ccccc2-c2nnn[nH]2)cc1 [IRBESARTAN] | 0.02 | 4.7 | 10 | 5.1 | 1.3 |  |  |
| CCCCc1nc(Cl)c(CO)n1Cc1ccc(-c2ccccc2-c2nn[nH]n2)cc1 [LOSARTAN POTASSIUM] |  | 4.9 |  |  |  |  |  |
| CCCCc1nc(Cl)c(CO)n1Cc1ccc(-c2ccccc2-c2nnn[n-]2)cc1.[K+] [LOSARTAN POTASSIUM] | 1.1 |  | 1.5 | 10 | 6.4 | 50 | IC50 [13]: 100000 nM; IC50 [14]: 26000 nM; IC50 [11]: 139000 nM |
| Cc1nc(C)c2c(n1)N(Cc1ccc(-c3ccccc3-c3nnn[nH]3)cc1)C(=O)CC2 [TASOSARTAN] |  | 4 | 11 |  | 1.2 | 20 | IC50 [9]: 32 nM |
